Experimental data as given in US20260240884A1, “MIXTURE OF HUMAN MILK OLIGOSACCHARIDES” (N.V. Nutricia, priority 2023, published 2026).

What was measured:
RSV-A2 [1] = test: Pre-incubation of HEp-2 cells with HMOs before RSV-A2 infection (Viral ToxGlo); format: cell-based, respiratory syncytial virus
Procedure: To assess the effect of mixtures of HMOs on a negative-sense single-stranded RNA virus in vitro infection assays were performed with RSV-A2 strain. Pre-incubation of either HEp-2 cells or RSV-A2 with HMOs prior to infection was compared to assess anti-viral activity. Hep2 cells were exposed to the following conditions as discussed in more detail separately: • I. Pre-incubation of HEp-2 cells with HMOs before viral infection. • II.
HEp-2 cells were seeded in white [Greiner 655098]96 well plates in assay medium (EMEM [Sigma M2279]) supplemented with 2% heat-inactivated fetal bovine serum (HI-FBS) [Gibco 10500064], 1% Penicillin/streptomycin [Gibco 15140122] and 1% L-glutamine [Gibco 25030024] and incubated at 37° C. and 5% CO2 for 5 hours.
HMO mixtures were prepared in sterile water and ribavirin (compound that blocks viral RNA synthesis and viral mRNA capping) was prepared in 1% DMSO at 10× test concentration in a round-bottom 96-well plate [Corning 3788], then serially diluted 2-fold.
The following compounds were assessed for their capacity to inhibit RSV-A2 viral infection: • 2′-FL • A mixture of GOS:FOS at a 9:1 weight ratio • Total HMOs • Mixture of 5 HMOs • Mixture of 19 HMOs • 6′-SL
Test compounds were subsequently transferred to the HEp-2 cell plates. Additional assay medium was added to ensure a final HMO concentration range of 0.13-16 mg/mL. Cell plates were incubated for 24 hours at 37° cand 5% CO2.
After 24-hour incubation with the test conditions RSV-A2 was added to the HMO containing HEp-2 cell plates to achieve a final multiplicity of infection [MOI] of 0.5. Cell plates were incubated for a further 72 hours at 37° C. and 5% CO2.
Viral ToxGlo™ [Promega G8943] was added to the plates to assess cell metabolism following viral infection and HMO treatment. After 20 minutes incubation, luminescence of each plate was measured on a spectrophotometer. Data were analysed using GraphPad Prism software to determine the concentration effective in producing 50% of viral inhibition expressed as ECso values for ribavirin and HMOs where relevant.

RSV-A2 [2] = test: Pre-incubation of RSV-A2 with HMOs prior to infection of HEp-2 cells (Viral ToxGlo); format: cell-based, respiratory syncytial virus
SARS-CoV2 WA1 = format: cell-based; details: virus pre-incubated 1 h with 0.5-16 mg/mL; MOI 0.1; 48 h; FIG. 1
[3] = tested on: IL-8 secretion of HT-29 cells; test: IL-8 secretion and viability of HT-29 cells pre-incubated with test compounds and challenged with Lyovec-complexed Poly I:C; format: cell-based, Human
[4] = tested on: rotavirus (RV) strain SA11; test: Caco-2 epithelial barrier model infected with rotavirus SA11 (TEER, lucifer yellow permeability); format: cell-based; details: Caco-2, 5% (50 mg/ml) for 4 h before SA11 MOI 0.1; 20 h p.i.; FIG. 2A

SMILES | Maximum viral inhibition (%) (RSV-A2 [1]; HEp-2 cells pre-incubated 24 h, 0.13-16 mg/mL, RSV-A2 MOI 0.5, 72 h) | Test concentration maximum viral inhibition (RSV-A2 [1]; HEp-2 cells pre-incubated 24 h, concentration at which the maximum inhibition was seen) [mg/mL] | anti-viral activity, replicate 1 (in words) (RSV-A2 [1]; HEp-2 pre-incubation, replicate 1 (67% infection)) | Maximum viral inhibition (%) (RSV-A2 [2]; RSV-A2 pre-incubated 1 h, 0.13-16 mg/mL, MOI 0.5, 72 h) | Test concentration maximum viral inhibition (RSV-A2 [2]; RSV-A2 pre-incubated 1 h, concentration at which the maximum inhibition was seen) [mg/mL] | antiviral activity (in words) (RSV-A2 [2]; RSV-A2 pre-incubated prior to infection, both replicates (94-95% infection)) | viral neutralization efficacy (viral RNA by RT-qPCR) (SARS-CoV2 WA1) | Mean IL-8 secretion ([3]; 0.1% + Poly I:C, Poly I:C alone 21799.28) [pg/mL] | Mean IL-8 secretion ([3]; 0.1%, no Poly I:C, Medium 359.54) [pg/mL] | prevention of rotavirus induced decrease in TEER [4]
CC(=O)N[C@H]1[C@H]([C@H](O)[C@H](O)CO)O[C@@](OC[C@H]2O[C@@H](O[C@H]3[C@H](O)[C@@H](O)[C@H](O)O[C@@H]3CO)[C@H](O)[C@@H](O)[C@H]2O)(C(=O)O)C[C@@H]1O [6′-SL, 6′-sialyllactose] | 2.6 | 8 | no anti-viral activity | −0.58 | 1 | no anti-viral activity | did not show viral neutralization efficacy | – | – | –
O=C[C@H](O)[C@@H](O)[C@H](O[C@@H]1O[C@H](CO)[C@@H](O)[C@H](O)[C@H]1O)[C@H](O)CO [Cellobiose, cellobiose] | – | – | – | – | – | – | – | 20023.80 | 277.94 | no effect
